Results published in patent US20030144148A1, “Method for plant-protection treatment by leaf absorption, using a combination between an active ingredient and a modified oil and novel combination for using said method” (SOCIETE D'EXPLOITATION DE PRODUITS POUR LES INDUSTRIES …, priority 1998, published 2003).

Assays:
[1] = system: barley (Hordeum vulgare) leaves; assay: Leaf penetration of 2,4-D, alone or in combination with modified oils; type: in vivo; conditions: percentage of 2,4-D penetrated into barley leaf
Procedure: (§1) Ten drops are applied to the adaxial surface of the first leaf. After 0, 4, 6, 24 or 72 hours, the product which has not penetrated is washed with 0.5 ml of acetone and the radioactivity measured by liquid scintillation. The radioactivity present in the treated leaf in the rest of the plant is determined in the carbon dioxide obtained after burning the tissue.
The penetration into barley (Hordeum vulgare) leaves, of 2,4-D or (2,4-dichlorophenoxy) acetic acid, which is a herbicide with a highly dissociated carboxylic acid function, alone or in combination with modified oils, was compared according to the procedure described in the preceding paragraph.

[2] = system: barley (Hordeum vulgare) leaves; assay: Leaf penetration of carbon-14 labeled phenmedipham, alone or in combination with modified oils; type: in vivo; design: dose or concentration left out as unconfirmed; conditions: percentage of phenmedipham penetrated into barley leaf, 72 hours after application in acetone
Procedure: as §1

Row | SMILES | LEAF PENETRATION AT: 24 HOURS ([1]; 24 hours after application) | LEAF PENETRATION AT: 72 HOURS ([1]; 72 hours after application) | LEAF PENETRATION AT: 72 HOURS [2]
1 | O=C(O)COc1ccc(Cl)cc1Cl [2,4-D ALONE, (2,4-dichlorophenoxy) acetic acid] | 10% | 15% | –
2 | COC(=O)Nc1cccc(OC(=O)Nc2cccc(C)c2)c1 [PH[…], 3-[(methoxycarbonyl)amino] phenyl (3-methylphenyl)-carbamate] | – | – | <10%
